From US12448352B2, “Beta adrenergic agonist and methods of using the same” (Curasen Therapeutics, Inc., priority 2019, dated 2025)

Columns and labels:
[1] = Plasma protein binding, equilibrium dialysis (human); format: in vitro ADME
Method: Preparation of 100 mM sodium phosphate and 150 mM NaCl buffer (PBS). A basic solution was prepared by dissolving 14.2 g/L Na2HPO4 and 8.77 g/L NaCl in deionized water and the solution could be stored at 4° C. for up to 7 days. An acidic solution was prepared by dissolving 12.0 g/L NaH2PO4 and 8.77 g/L NaCl in deionized water and the solution could be stored at 4° C. for up to 7 days. The basic solution was titrated with the acidic solution to pH 7.4 and store at 4° C. for up to 7 days. pH was checked on the day of experiment and was adjusted if outside specification of 7.4±0.1.
Thawing of the frozen plasma (stored at −80° C.). Frozen plasma was thawed immediately at room temperature. The plasma was centrifuged at 3,220 g for 10 minutes to remove clots and supernatant was collected into a fresh tube. The pH of the plasma was checked and recorded. Note: a). Only use plasma that has been thawed no more than twice since arrival. b). Only use plasma within the range of pH 7 to pH 8.
Preparation of working solutions. The working solutions of test compound and control compound ketoconazole were prepared in DMSO at the concentration of 200 μM. And then 3 μL of working solutions was removed to mix with 597 μL of rat plasma to achieve a final concentration of 1 μM (0.5% DMSO). Plasma samples were vortexed thoroughly.
Preparation of dialysis membranes. […]

MDCK-MDR1 cells = experiment: MDCK-MDR1 permeability assay; format: in vitro ADME; design: A-B (Papp apical to basolateral) / B-A (Papp basolateral to apical): unit not given here
Method: Preparation of MDCK-MDR1 Cells. Cell culture medium of was added to each well of the Transwell insert (50 μL) and reservoir (25 mL). The HTS transwell plates were then incubated at 37° C., 5% CO2 for 1 hour before cell seeding. MDCK-MDR1 cells were diluted to 1.56×10^6 cells/mL with culture medium and 50 μL of cell suspension were dispensed into the filter well of the 96-well HTS Transwell plate. Cells were cultivated for 4-8 days in a cell culture incubator at 37° C., 5% CO2, 95% relative humidity. Cell culture medium was replaced every other day, beginning no later than 24 hours after initial plating.
Preparation of Stock Solutions. 10 mM stock solutions of test compounds were prepared in DMSO. The stock solutions of positive controls were prepared in DMSO at the concentration of 10 mM. Metoprolol, prazosin and imatinib were used as control compounds in this assay.
Assessment of Cell Monolayer Integrity. Medium was removed from the reservoir and each Transwell insert and replaced with prewarmed fresh culture medium. Transepithelial electrical resistance (TEER) across the monolayer was measured using Millicell Epithelial Volt-Ohm measuring system (Millipore, USA). The Plate was returned to the incubator once the measurement was done. TEER value should be greater than 42 ohm·cm2, which indicates the well-qualified MDCK-MDR1 monolayer. The TEER value was calculated according to the following equation: TEER measurement (ohms)×Area of membrane (cm^2)=TEER value (ohm·cm^2)
Assay Procedures. The MDCK-MDR1 plate was removed from the incubator and washed twice with pre-warmed HBSS (10 mM HEPES, pH 7.4), and then incubated at 37° C. for 30 minutes. The stock solutions of test compounds and controls were diluted in DMSO to get 1 mM solutions and then diluted with HBSS (10 mM HEPES, pH 7.4) to get 5 μM working solutions. The final concentration of DMSO in the incubation system was 0.5%. […]

Cc1ncccc1[C@@H](O)CNC(C)(C)C [Compound 03-115]
PPB (human), Percent of Unbound Fractions [1]: 100%
A-B (Papp apical to basolateral) (MDCK-MDR1 cells; MDCK-MDR1, 5 μM, 2 hours): 6.96
B-A (Papp basolateral to apical) (MDCK-MDR1 cells; MDCK-MDR1, 5 μM, 2 hours): 10.98
Efflux Ratio (MDCK-MDR1 cells; MDCK-MDR1, Papp (B-A)/Papp (A-B)): 1.58
